Reference: US10479789B2, “Pyrido[1,2-A]pyrimidone analog, crystal form thereof, intermediate thereof and preparation method therefor” (Chia Tai Tianqing Pharmaceutical Group Co., Ltd., priority 2015, dated 2019)

Columns and labels:
[1] = biological target: PI3Kδ (Homo sapiens, UniProt O00329); experiment: ADP-Glo Assay II, PI3Kδ; type: biochemical; settings: read-out: IC50 for inhibition of PI3Kδ activity
Protocol: (§1) 1) The compound was diluted using Echo from Labcyte company, 50 nL of the compound was transferred into an assay plate, and centrifuged at a speed of 1000 rpm for 10 sec.
(§2) 2) A kinase/lipid substrate mixed solution and a kinase reaction buffer/lipid substrate mixed solution were prepared; the kinase/lipid substrate mixed solution was added into columns 3-24 of the assay plate, 3 μL per well; the kinase reaction buffer/lipid substrate mixed solution was added into columns 1-2 of the assay plat, 3 μL per well; and the plate was centrifuged at a speed of 1000 rpm for 10 sec.
(§3) 3) An ATP solution was prepared, and added into the assay plate, 2 μL per well; the plate was centrifuged at a speed of 1000 rpm for 10 sec, shaken and mixed in 2nd gear mode on a plate shaker for 1 min, further centrifuged at a speed of 1000 rpm for 10 sec, and incubated for 120 min at 23° C. […]
(§4) 5) A kinase detection reagent was prepared, added into the assay plate, 10 μL per well; the plate was centrifuged at a speed of 1000 rpm for 10 sec, shaken and mixed in 2nd gear mode on a plate shaker for 1 min, further centrifuged at a speed of 1000 rpm for 10 sec, incubated for 30 min at 23° C.; and then read on the multi-marker detector Envision.
(§5) IC50 results were analyzed by XLfit5 (Formula 205) of IDBS company.

[2] = biological target: T1, PI3K (p110α) (Homo sapiens, UniProt P42336); experiment: ADP-Glo Assay I, in vitro enzyme activity; type: biochemical; settings: 0.33 nM PI3Kalpha
T1 construct: purchased Millipore 14-602-K
T1 sequence (P42336 whole entry): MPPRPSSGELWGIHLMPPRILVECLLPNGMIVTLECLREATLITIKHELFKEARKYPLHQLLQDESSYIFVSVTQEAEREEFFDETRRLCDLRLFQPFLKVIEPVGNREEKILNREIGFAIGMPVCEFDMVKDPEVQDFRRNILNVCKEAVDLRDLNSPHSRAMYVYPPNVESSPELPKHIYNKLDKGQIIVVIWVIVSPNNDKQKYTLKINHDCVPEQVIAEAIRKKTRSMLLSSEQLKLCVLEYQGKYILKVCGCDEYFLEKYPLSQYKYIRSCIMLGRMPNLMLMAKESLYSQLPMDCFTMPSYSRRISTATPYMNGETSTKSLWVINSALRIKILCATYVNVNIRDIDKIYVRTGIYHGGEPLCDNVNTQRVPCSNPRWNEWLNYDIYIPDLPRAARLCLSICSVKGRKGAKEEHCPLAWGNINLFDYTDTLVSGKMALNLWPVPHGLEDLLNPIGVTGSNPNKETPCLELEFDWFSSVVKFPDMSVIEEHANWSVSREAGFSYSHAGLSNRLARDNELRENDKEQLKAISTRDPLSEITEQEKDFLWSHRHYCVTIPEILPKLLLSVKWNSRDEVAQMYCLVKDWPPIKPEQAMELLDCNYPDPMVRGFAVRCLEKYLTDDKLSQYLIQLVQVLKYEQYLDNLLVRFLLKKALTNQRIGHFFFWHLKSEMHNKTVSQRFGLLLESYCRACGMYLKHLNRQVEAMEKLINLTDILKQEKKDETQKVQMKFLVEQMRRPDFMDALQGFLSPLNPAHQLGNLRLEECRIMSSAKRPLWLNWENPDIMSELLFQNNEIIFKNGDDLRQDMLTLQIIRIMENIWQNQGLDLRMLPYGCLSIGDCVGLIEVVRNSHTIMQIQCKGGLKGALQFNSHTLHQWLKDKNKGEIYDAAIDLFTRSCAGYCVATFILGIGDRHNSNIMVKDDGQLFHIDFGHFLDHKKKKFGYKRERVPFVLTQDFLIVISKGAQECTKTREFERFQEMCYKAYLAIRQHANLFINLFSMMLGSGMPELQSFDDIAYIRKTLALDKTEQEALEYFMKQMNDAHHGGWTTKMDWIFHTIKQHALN
T1 sequence (P27986 whole entry partner): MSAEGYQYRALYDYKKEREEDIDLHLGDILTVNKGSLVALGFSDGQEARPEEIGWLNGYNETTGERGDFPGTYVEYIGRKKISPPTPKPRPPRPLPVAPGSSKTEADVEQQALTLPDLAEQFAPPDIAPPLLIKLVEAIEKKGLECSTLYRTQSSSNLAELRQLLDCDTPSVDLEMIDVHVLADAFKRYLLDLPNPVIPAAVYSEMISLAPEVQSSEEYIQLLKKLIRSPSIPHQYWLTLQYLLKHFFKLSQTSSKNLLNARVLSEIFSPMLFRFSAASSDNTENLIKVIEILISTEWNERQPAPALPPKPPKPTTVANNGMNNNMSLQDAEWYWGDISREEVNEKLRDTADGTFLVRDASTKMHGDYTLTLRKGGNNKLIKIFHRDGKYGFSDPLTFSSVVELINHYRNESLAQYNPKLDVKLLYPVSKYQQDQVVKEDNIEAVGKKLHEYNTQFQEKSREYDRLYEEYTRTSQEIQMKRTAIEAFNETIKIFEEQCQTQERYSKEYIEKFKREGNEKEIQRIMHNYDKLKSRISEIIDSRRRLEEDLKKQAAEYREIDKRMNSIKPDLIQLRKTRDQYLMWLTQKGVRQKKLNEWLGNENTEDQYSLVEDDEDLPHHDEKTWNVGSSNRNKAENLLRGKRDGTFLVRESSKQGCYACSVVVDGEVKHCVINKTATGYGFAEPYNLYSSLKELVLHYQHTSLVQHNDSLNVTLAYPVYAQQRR
Protocol: The test compounds were diluted with a three-fold concentration gradient, and 10 concentrations (10000 nM to 0.5 nM) were obtained in total.
50 nL of the test compounds of the present invention was transferred to a reaction plate (PerkinElmer #6007299), and added with 3 μL of an enzyme/substrate mixture (0.33 nM PI3Kalpha, Millipore #14-602-K/166.5 μM PIP2); after incubation for 20 min, 2 μL of an ATP solution (100 μM) was added to initiate the reaction; after 2 hours of reaction at room temperature, the kinase reaction was stopped by adding 5 μL ADP-Glo reagent, followed by incubation at room temperature for 60 min, allowing the remaining unreacted ATP to be completely digested; and the resulting solution was added with 10 μL of a kinase detection reagent and incubated at room temperature for 40 min, and then the […] was read on Envision. PIP2, ATP, the ADP-Glo reagent, and the kinase assay reagents are all from an ADP-Glo Kinase Assay Kit (Promega #V1792).
IC50 was calculated using the standard 4-parameter fitting method (Model 205, XL-fit, iDBS).

[3] = biological target: PI3Kα (Homo sapiens, UniProt P42336); experiment: ADP-Glo Assay II, PI3Kα; type: biochemical; settings: read-out: IC50 for inhibition of PI3Kα activity
Sequence of PI3Kα (P42336 whole entry): as the sequence (P42336 whole entry) above
Sequence of PI3Kα (P27986 whole entry partner): as the sequence (P27986 whole entry partner) above
Protocol: as §1, §2, §3, §4, §5

[4] = system: human colon cancer CO-04-0032; experiment: In vivo pharmacodynamics, subcutaneous xenograft tumor model of human colon cancer CO-04-0032; design: species or system BALB/c nude mice
Protocol: The studies were conducted to examine if the test drugs have in vivo efficacy in the human colon cancer CO-04-0032 animal model and the gastric cancer ST-02-0013 animal model. The descriptions about the animal feeding, feed ingredients, experimental observation, experimental indexes, experimental termination, as well as data analysis in the tests were as follows:
Animal Grouping: The animals were weighed and the tumor volume was measured prior to administration. The animals were randomly grouped according to tumor volume (randomized block design).
Experimental Indexes: The experimental indexes were used to examine whether tumor growth is inhibited, delayed or cured. Tumor diameter was measured twice a week with a vernier caliper. The tumor volume was calculated by the formula: V=0.5a×b^2, wherein a and b represent the long diameter and short diameter of a tumor, respectively. Tumor growth inhibition (TGI) of a compound was evaluated with T-C (day) and T/C (%). […]
Data Analysis: One-way ANOVA was used for comparison of three or more groups. […] All data was analyzed using SPSS 17.0. p<0.05 indicated a significant difference. […]

[5] = biological target: PI3Kγ (Homo sapiens, UniProt P48736); experiment: ADP-Glo Assay II, PI3Kγ; type: biochemical; settings: read-out: IC50 for inhibition of PI3Kγ activity
Sequence of PI3Kγ (P48736 whole entry): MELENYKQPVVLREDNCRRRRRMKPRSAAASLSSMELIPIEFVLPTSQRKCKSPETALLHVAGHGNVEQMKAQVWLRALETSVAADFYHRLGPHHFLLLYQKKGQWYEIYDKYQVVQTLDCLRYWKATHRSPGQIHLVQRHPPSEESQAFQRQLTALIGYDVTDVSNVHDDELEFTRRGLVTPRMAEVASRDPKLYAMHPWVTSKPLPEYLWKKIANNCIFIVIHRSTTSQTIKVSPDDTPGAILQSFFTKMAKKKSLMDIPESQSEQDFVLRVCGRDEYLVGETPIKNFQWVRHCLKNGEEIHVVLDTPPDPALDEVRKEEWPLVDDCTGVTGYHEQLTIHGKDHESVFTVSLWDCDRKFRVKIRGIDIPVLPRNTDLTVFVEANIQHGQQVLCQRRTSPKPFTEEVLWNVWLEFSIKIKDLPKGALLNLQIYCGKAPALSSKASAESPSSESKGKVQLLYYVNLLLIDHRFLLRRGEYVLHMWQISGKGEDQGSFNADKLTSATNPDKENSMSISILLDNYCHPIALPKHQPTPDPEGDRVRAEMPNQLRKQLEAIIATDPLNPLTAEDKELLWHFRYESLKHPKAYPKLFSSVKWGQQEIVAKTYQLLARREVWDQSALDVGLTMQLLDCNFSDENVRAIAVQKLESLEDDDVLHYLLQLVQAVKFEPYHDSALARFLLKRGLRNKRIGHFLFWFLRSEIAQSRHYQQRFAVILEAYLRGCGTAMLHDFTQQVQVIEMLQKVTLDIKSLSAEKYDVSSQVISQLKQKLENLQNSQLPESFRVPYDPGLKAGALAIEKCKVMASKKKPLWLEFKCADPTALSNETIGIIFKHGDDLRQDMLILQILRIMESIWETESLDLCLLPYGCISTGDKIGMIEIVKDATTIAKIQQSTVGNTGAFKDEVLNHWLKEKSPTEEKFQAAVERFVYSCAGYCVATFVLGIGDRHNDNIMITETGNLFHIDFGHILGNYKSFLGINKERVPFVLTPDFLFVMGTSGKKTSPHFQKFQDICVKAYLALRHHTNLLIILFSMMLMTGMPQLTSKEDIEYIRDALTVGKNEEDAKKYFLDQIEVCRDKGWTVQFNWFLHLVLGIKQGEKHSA
Protocol: as §1, §2, §3, §4

Sequence of PI3Kδ (O00329 whole entry): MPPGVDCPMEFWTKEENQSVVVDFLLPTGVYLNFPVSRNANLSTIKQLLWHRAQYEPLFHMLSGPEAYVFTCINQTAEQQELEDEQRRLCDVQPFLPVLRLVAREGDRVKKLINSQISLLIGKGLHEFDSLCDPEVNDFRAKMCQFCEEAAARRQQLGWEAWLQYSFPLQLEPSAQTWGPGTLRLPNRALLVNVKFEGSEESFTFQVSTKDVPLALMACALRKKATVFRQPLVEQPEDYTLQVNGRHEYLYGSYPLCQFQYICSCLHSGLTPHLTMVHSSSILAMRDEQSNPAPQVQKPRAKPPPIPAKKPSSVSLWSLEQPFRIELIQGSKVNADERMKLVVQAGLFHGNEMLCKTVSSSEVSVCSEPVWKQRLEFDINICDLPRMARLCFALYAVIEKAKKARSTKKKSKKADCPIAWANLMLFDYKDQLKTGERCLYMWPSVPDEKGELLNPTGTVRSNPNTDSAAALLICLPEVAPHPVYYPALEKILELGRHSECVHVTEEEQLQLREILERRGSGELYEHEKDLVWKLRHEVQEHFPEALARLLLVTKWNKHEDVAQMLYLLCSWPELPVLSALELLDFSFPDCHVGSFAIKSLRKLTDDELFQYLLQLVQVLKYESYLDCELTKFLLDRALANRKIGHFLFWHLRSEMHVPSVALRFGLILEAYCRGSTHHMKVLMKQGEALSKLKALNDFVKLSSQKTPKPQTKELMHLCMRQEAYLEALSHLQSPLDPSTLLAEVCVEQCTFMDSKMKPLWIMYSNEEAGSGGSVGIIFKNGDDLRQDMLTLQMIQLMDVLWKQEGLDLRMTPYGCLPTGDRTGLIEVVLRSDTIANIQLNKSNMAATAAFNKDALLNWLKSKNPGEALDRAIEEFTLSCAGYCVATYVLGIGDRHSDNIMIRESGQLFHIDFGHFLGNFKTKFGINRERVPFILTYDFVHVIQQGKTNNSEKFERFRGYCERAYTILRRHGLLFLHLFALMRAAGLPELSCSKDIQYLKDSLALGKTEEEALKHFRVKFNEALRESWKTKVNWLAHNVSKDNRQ
Sequence of PI3Kδ (P27986 whole entry partner): as the sequence (P27986 whole entry partner) above

IC50 [1]: 0.5 ± 0.1 nM | IC50 [2]: ≤ 1 nM | IC50 [3]: 0.6 ± 0.2 nM | IC50 [5]: 7 ± 0.9 nM
Structure (SMILES): COc1ncc(-c2ccc3ncc(OCCN(C)C)c(=O)n3c2)cc1NS(=O)(=O)c1ccc(F)cc1Cl [Compound 1]
anti-tumor activity compared to the positive control drug BKM120 ([4]; colon cancer CO-04-0032): more excellent anti-tumor activity | increase in tumor volume ([4]; from day 15 to day 30 of the administration, CO-04-0032): almost no increase in tumor volume
